Test results from EP0840609B1, “USE OF UNSUBSTITUTED AND SUBSTITUTED N-(PYRROL-1-YL)PYRIDINAMINES AS ANTICONVULSANT AGENTS” (Aventis Pharmaceuticals Inc., priority 1995, dated 1997).
Where a name gives a salt, the structure may show the parent alone.

Each compound was assayed on brain membrane sodium channels (assay: not given). Details: vesicular preparation of male Wistar rat cortices, 25 nM [^3H]batrachotoxin, 60 minutes at 25°C; read-out: Inhibition of [^3H]Batrachotoxin Binding IC50.

Compound	IC50
CCCN(c1ccncc1F)n1ccc2cc(O)ccc21 [1-[Propyl-4-(3-fluoropyridinyl)amino]-1H-indol-5-ol hydrochloride]	70 µM
NCCc1cn(Nc2ccncc2)c2ccccc12 [3-Aminoethyl-N-(4-pyridinyl)-1H-indol-1-amine dimaleate]	44 µM
CCCN(c1ccncc1)n1cc(CN)c2ccccc21 [3-Aminomethyl-N-propyl-N-(4-pyridinyl)-1H-indol-1-amine dihydrochloride]	10 µM
Clc1cn(Nc2ccncc2)c2ccccc12 [3-Chloro-N-(4-pyridinyl)-1H-indol-1-amine salicylate]	11 µM
CCCN(c1ccncc1)n1cc(Cl)c2ccccc21 [3-Chloro-N-propyl-N-(4-pyridinyl)-1H-1-amine hydrochloride]	10 µM
CCc1cn(N(C)c2ccncc2)c2ccccc12 [3-Ethyl-N-methyl-N-(4-pyridinyl)-1H-indol-1-amine hydrochloride]	12 µM
CCCN(c1ccncc1F)n1cccc1 [3-Fluoro-N-propyl-N-(1H-pvrrol-1-yl)-4-pyridinamine hydrochloride]	46 µM
Cc1cn(Nc2ccncc2)c2ccc(O)cc12 [3-Methyl-1-(4-pyridinylamino)-1H-indol-5-ol]	20 µM
CCCN(c1ccncc1)n1cc(C)c2cc(O)ccc21 [3-Methyl-1-(propyl-4-pyridinylamino)-1H-indol-5-ol hemi-oxalate]	21 µM
Cc1cn(Nc2ccncc2)c2ccccc12.O=C(O)C(=O)O [3-Methyl-N-(4-pyridinyl)-1H-indol-1-amine oxalate]	11 µM
Nc1cnccc1Nn1ccc2ccccc21 [4-[N-(1H-indol-1-yl)]-3,4-pyridinamine, 4-[N-(1H-indol-1-yl)]-3,4-pyridinamine hemihydrate]	22 µM
CCCN(c1ccncc1)n1ccc2cc(Br)ccc21 [5-Bromo-N-propyl-N-(4-pyridinyl)-1H-indol-1-amine maleate]	14 µM
Brc1ccc2c(ccn2Nc2ccncc2)c1 [5-bromo-N-(4-pyridinyl)-1H-indol-1-amine, 5-Bromo-N-(4-pyridinyl)-1H-indol-1-amine maleate]	23 µM
NC(=O)N1c2ccccc2C=Cc2ccccc21 [Carbamazepine, reference compound]	94 µM
CC(C)N(c1ccncc1)n1ccc2ccccc21 [N-(1-Methylethyl)-N-(4-pyridinyl)-1H-indol-1-amine maleate]	9 µM
c1ccn(Nc2ccncc2)c1 [N-(1H-pyrrol-1-yl)-4-pyridinamine, N-(1H-Pyrrol-1-yl)-4-pyridinamine]	40 µM
CC(C)CN(c1ccncc1)n1ccc2ccccc21 [N-(2-Methylpropyl)-N-(4-pyridinyl)-1H-indol-1-amine maleate]	9 µM
c1ccc(Nn2ccc3ccccc32)nc1 [N-(2-pyridinyl)-1H-indol-1-amine, N-(2-Pyridinyl)-1H-indol-1-amine]	12 µM
Clc1cnccc1Nn1ccc2ccccc21 [N-(3-Chloro-4-pyridinyl)-1H-indol-1-amine hydrochloride]	14 µM
Cc1cn(Nc2ccncc2Cl)c2ccccc12 [N-(3-Chloro-4-pyridinyl)-3-methyl-1H-indol-1-amine hydrochloride]	29 µM
CCCN(c1ccncc1Cl)n1cc(C)c2ccccc21 [N-(3-Chloro-4-pyridinyl)-3-methyl-N-propyl-1H-indol-1-amine]	44 µM
CCCN(c1ccncc1Cl)n1ccc2ccccc21 [N-(3-Chloro-4-pyridinyl)-N-propyl-1H-indol-1-amine hydrochloride]	32 µM
Cc1cn(Nc2ccncc2F)c2ccccc12 [N-(3-Fluoro-4-pyridinyl)-3-methyl-1H-indol-1-amine]	42 µM
CCCN(c1ccncc1F)n1cc(C)c2ccccc21 [N-(3-Fluoro-4-pyridinyl)-N-propyl-3-methyl-1H-indol-1-amine hydrochloride]	31 µM
Cc1cnccc1Nn1ccc2ccccc21 [N-(3-Methyl-4-pyridinyl)-1H-indol-1-amine]	21 µM
c1cncc(Nn2ccc3ccccc32)c1 [N-(3-pyridinyl)-1H-indol-1-amine, N-(3-Pyridinyl)-1H-indol-1-amine]	12 µM
c1ccc2c(c1)ccn2Nc1ccncc1 [N-(4-pyridinyl)-1H-indol-1-amine, N-(4-Pyridinyl)-1H-indol-1-amine maleate]	18 µM
CCN(c1ccncc1)n1cccc1 [N-Ethyl-N-(1H-pyrrol-1-yl)-4-pyridinamine hydrochloride]	86 µM
CCCN(c1ccncc1)n1cccc1 [N-Propyl-N-(1H-pyrrol-1-yl)-4-pyridinamine hydrochloride]	66 µM
CCCN(c1ccncc1)n1ccc2ccccc21.Cl [N-Propyl-N-(4-pyridinyl)-1H-indol-1-amine hydrochloride]	5 µM

The compounds below were run on Male CD-1 mice (assay: Supramaximal electroshock in mice (block of tonic seizure / extensor tonus)). Details: Mus musculus, ip, @ 30 mpk, intraperitoneally, read-out: Inhibition of supramaximal electroshock (protection, normalized percent inhibition).
Type: in vivo
Procedure: This procedure is used as to predict anticonvulsant activity of a test compound in vivo by its ability to block a full tonic seizure induced by a supramaximal electroshock stimulation as an indication of efficacy in preventing grand mal seizures.
Male CD-1 mice (Charles River) weighing 18-30 grams were housed in accordance with the "NIH Guide to Care and Use of Laboratory Animals" (National Institutes of Health Care Publication 85-23, revised 1985) with a 12 hour light/dark cycle and free access to food and water. On the day of testing, animals are brought to the laboratory and randomly assigned to groups of six for the time course experiments and to test groups of ten for the dose-response experiments.
The apparatus used for the test was the Wahlquist Electroshock Stimulator (Model H), which has a power source of 120 volts ac. A current of 15.5 mA lasting for 300 msec was delivered by placing the terminals of the stimulator across the eyes of the animal. This stimulus results in a tonic seizure, defined as a brief period of hindlimb flexion followed by a prolonged period of hindlimb extension. […] Protection is calculated as a normalized percent inhibition relative to a vehicle treated control group.
A time course is performed to determine the peak time of drug action and then a dose response performed at the peak time to determine drug potency. Mice are dosed in a randomized fashion using a total of 4 dose groups and one vehicle control group. The ED50 value and 95% confidence limits are calculated by a computerized Litchfield and Wilcoxon analysis.
Drugs are prepared dissolved in distilled water and, if insoluble a drop of surfactant is added.. Drugs are routinely administered intraperitoneally for this test and given in a dosage volume of 10 ml/kg.

Compound	inhibition at 30 mg/kg
CCCN(c1ccncc1F)n1cc(C)c2ccccc21 [N-(3-Fluoro-4-pyridinyl)-N-propyl-3-methyl-1H-indol-1-amine hydrochloride]	50%

Same assay, conditions: Mus musculus, ip, @ 60 mpk, intraperitoneally, read-out: Inhibition of supramaximal electroshock (protection, normalized percent inhibition)

Compound	inhibition at 60 mg/kg
CCCN(c1ccncc1F)n1cc(C)c2ccccc21 [N-(3-Fluoro-4-pyridinyl)-N-propyl-3-methyl-1H-indol-1-amine hydrochloride]	50%

Same assay, conditions: Mus musculus, ip, intraperitoneally, dose response at peak time, read-out: INHIBITION OF SUPRAMAXIMAL ELECTROSHOCK IN MICE ED50

Compound	ED50
Cc1cn(Nc2ccncc2)c2ccccc12.O=C(O)C(=O)O [3-Methyl-N-(4-pyridinyl)-1H-indol-1-amine oxalate]	13 mg/kg
NC(=O)N1c2ccccc2C=Cc2ccccc21 [Carbamazepine, reference compound]	18.6 mg/kg
O=C1NC(=O)C(c2ccccc2)(c2ccccc2)N1 [Diphenylhydantoin, reference compound]	9.4 mg/kg
CCCN(c1ccncc1)n1c(C)ccc1C.O=C(O)/C=C\C(=O)O [N-(2,5-Dimethyl-1H-pyrrol-1-yl)-N-(n-propyl)-4-pyridinamine maleate]	50.1 mg/kg
CCCN(c1ccncc1)n1ccc2ccccc21.Cl [N-Propyl-N-(4-pyridinyl)-1H-indol-1-amine hydrochloride]	14.2 mg/kg

Same assay, conditions: intraperitoneally, dose response at peak time

Compound	INHIBITION OF SUPRAMAXIMAL ELECTROSHOCK IN MICE ED50
CCCN(c1ccncc1)n1cc(C)c2ccccc21.O=C(O)/C=C\C(=O)O [3-Methyl-N-propyl-N-(4-pvridinyl)-1H-indol-1-amine maleate]	14.4 mg/kg
